# Reference: US20160058705A1 (priority 2014, published 2016)
# Entries after “also recorded” stand apart in the source; their conditions may differ.
# Key:
# [1] = test system: TAC-induced cardiac hypertrophy; assay: Echocardiography in mouse model of TAC (pressure overload-induced cardiac hypertrophy); type: in vivo; conditions: TAC mice, 300 μg/kg IP at days 1 and 7; compared with TAC controls
# Text: (§1) All procedures involving animal use, housing, and surgeries were approved by the Stanford Institutional Animal Care and Use Committee (IACUC). Animal care and interventions were provided in accordance with the Laboratory Animal Welfare Act.
# (§2) For constriction of transverse thoracic aorta (DeAlmeida et al. (2010) J. Vis. Exp. April 21(38) pii:172), mice were anesthetized using an isoflurane inhalational chamber, followed by endotracheal intubation using a 22-gauge angiocatheter (Becton, Dickinson Inc., Sandy, Utah) connected to a small animal ventilator (Harvard Apparatus, Holliston, Mass.). A left thoracotomy was performed via the fourth intercostal space, the transverse aorta was identified, and a 6.0 silk suture was placed between the innominate and left carotid arteries. The suture was tightened around a 271/2 gauge blunt needle, placed parallel to the aorta (FIG. 1B) to induce a constriction of ˜0.4 mm in diameter. In sham control mice, an identical procedure was conducted, except for the constriction of the aorta.
# In vivo heart function was evaluated by echocardiography at 1 day prior to surgery (baseline) and on days 1, 7, and 14 post-surgery (FIG. 1A). […] Fractional shortening (FS), LV internal diameter at end diastole (LVIDd) and systole (LVIDs), and posterior LV wall thickness at end diastole (LVPWd) were measured. […]
# [2] = test system: TAC-induced cardiac hypertrophy; assay: Histology (Masson's trichrome) of heart sections two weeks post injury; type: in vivo, mouse; conditions: TAC mice
# Text: as §1, §2
# Histological analysis was performed following standard protocols for paraffin embedding. Mounted heart samples were stained for Masson's trichrome (TC, to label muscle fibers in red, collagen in blue, cytoplasm in pink, and nuclei in dark brown). A minimum of 4 sections per sample were used.
substance,measurement,setting,value
pyroglutamyl apelin-13 [[Pyr1]-apelin-13],hypertrophic response / cardiac remodeling and dysfunction due to pressure overload,[1],more modest effect; also recorded: slight inhibition of cardiac remodeling and increase in FS
same,size of LV and extent of cardiac fibrosis (trichrome histology),[2],remarkable inhibition of the LV growth
